Results on two compounds are retold here after patent US20250339569A1, “CARBONIC ANHYDRASE IX LIGANDS” (priority 2021, published 2025).

One may read the clearance as a measure of how efficiently the substance is removed, as volume per time. As usually defined, the half-life is the time in which the quantity being followed falls by half. A low value points to rapid decline. A word on the AUC(0-t): it is exposure summed from dosing to a finite time, without extrapolation to infinity. A high value points to more exposure.

The nature of series [1]: Dose range finding study by intravenous route with toxicokinetics. The conditions noted are these: for Dose-normalized AUClast: AUClast divided by dose in μg/kg; for clearance / half-life / Vd / AUC(0-t) / level at […]: male, beagle, iv, mean n = 2; for clearance / half-life / Vd: dog, plasma; for Vd: read-out: Vss; for AUC(0-t) / level at […]: dog plasma; for level at […]: read-out: C15 min. It is filed as in vivo, beagle dogs. The method, then: The following parameters and endpoints were evaluated: mortality, clinical observations, body weights, food consumption, local reactions, clinical pathology parameters (hematology, coagulation, and clinical chemistry), organ weights, and macroscopic examinations. Both animals were sampled for toxicokinetics (TK) on each dosing occasion (i.e., on day 1, day 5, day 9 and day 13) at: pre-dose, 15 min, 30 min, 1 h, 6 h and 24 h. Blood samples were collected in K2EDTA tubes. Plasma was prepared by centrifugation (2500 g for 10 minutes, +4° C.) within 1 hour after collection, and then frozen within 1 hour after centrifugation and stored at −80° C. […] Chromatographic separation was achieved using a Waters Acquity UPLC system with a Waters Acquity HSS T3 C18 2.1×50 mm, 1.8 μm column. Chromatography was conducted at 50° C. at a flow rate of 0.7 mL/min using a mobile phase consisting of A: acetonitrile, and B: 1% formic acid in water, according to the following linear gradient: 0 to 0.1 min: 90% B; 0.1 to 4.1 min: from 90% B to 74% B; 4.1 to 4.2 min: from 74% B to 5% B; 4.2 to 4.6 min: 5% B; 4.6 to 4.7 min: from 5% B to 90% B; 4.7-5.1 min; 90% B. Detection was performed using a Sciex API6600 TOF mass spectrometer. Toxicokinetic parameters were estimated from concentration-time data using Phoenix pharmacokinetic software (version 6.4, Certara L. P.). A non-compartmental approach consistent with the bolus intravenous injection was used for parameter estimation.

The nature of series [2]: Biodistribution study (SPECT/CT) in SK-RC-52 tumor-bearing mice with or without gelofusine. It is filed as in vivo, NMRI nude mice. As to conditions: female, NMRI nude, mouse, in vivo, iv, total radioactivity. The method, then:
The effect on tumor uptake of prior injection of gelofusine for kidney protection was investigated in mice bearing the SK-RC-52 tumor. Biodistribution was evaluated using in vivo SPECT/CT imaging. Prior to the in vivo study the compounds (ligands) were initially radiolabeled with In-111 and the stability of radiolabeled compounds was evaluated in buffer at three different timepoints.
The study was performed in female NMRI nude mice (approximately 6 weeks of age) from Janvier Labs, France, housed up to 5 mice per cage.
The column was washed with 2 mL water, and then the final product was eluted from the column in EtOH solution (50%) • The sample was formulated in PBS to the final concentration of 150 MBq/mL and 5 nmol/mL.
SK-RC-52 cells were cultured in RPMI 1640 with GlutaMax-I (Thermo Fisher Scientific #61870044) supplemented with 10% fetal bovine serum+1% penicillin/streptomycin, harvested, washed twice in RPMI 1640 and resuspended at 2×10^7 cells/mL in RPMI 1640. HT-29 cells were cultured in McCoy's 5a Medium Modified (Sigma #M9309). For inoculation of HT-29 cells, cells were harvested, washed twice in PBS and resuspended at 5×10^7 cells/mL in PBS. Cells were kept on ice until inoculation.
Animals were anaesthetized (isoflurane, 2-4% in ambient air supplemented with 100% 02) prior to tumor inoculation. The tumor cells (100 μL suspension of either SK-RC-52 cells (2×10^6 cells/animal) or HT-29 cells (5×10^6 cells/animal)) were subcutaneously inoculated in the right flank using a 1-mL syringe equipped with a 27 G needle. Tumor growth and animal weight were measured twice per week. Tumor size was measured by caliper and the volume was estimated using the following formula: 0.52×(length×width^2). When tumor sizes reached 150-250 mm^3, animals were randomized into groups (n=3) of similar average tumor volume and body weight.
Animals were injected intravenously with In-111-labeled compounds (single bolus, 22.3-31.2 MBq, ˜1 nmol ligand, injection volume: 100 μL) in the lateral tail vein using a 29 G syringe.
CT was performed with helical scan, 300 ms exposure, reconstruction resolution of 250 μm. SPECT was performed with multi-pinhole scan and a 30 s frame time. For the quantification of the radioactivity uptake, regions of interests (ROIs) were drawn over the tumor, kidney, liver, and heart (estimate of blood) identified on the images. Uptake was expressed as percent of injected dose per gram tissue (% ID/g).

Like-named read-outs stand apart in the source and are kept apart here.

For `CC(C)C[C@@H]1NC(=O)[C@H](Cc2cccc(NC(=O)CCCS(N)(=O)=O)c2)NC(=O)[C@H](CC(=O)O)NC(=O)[C@H]2CCCN2C(=O)[C@H](CCC(=O)O)NC(=O)[C@@H](NC(=O)[C@H](CCC(N)=O)NC(=O)CN2CCN(C(=O)CN3CCN(CC(=O)O)CCN(CC(=O)O)CCN(CC(=O)O)CC3)CC2)CSCc2cccc(c2)CSC[C@@H](C(N)=O)NC(=O)[C@H](CO)NC(=O)[C@H](Cc2c[nH]c3ccccc23)NC(=O)[C@H]([C@@H](C)O)NC1=O` [DPI-4452, DOTA-PPAc-Gln-[Cys(3MeBn)-Glu-pro-Asp-Af3(Cpsu)-Leu-Thr-Trp-Ser-Cys]-NH2], the “Dose-normalized AUClast” value in series [1] (Day 1, […] i.v.) was 1.36; in series [1] (Day 5, 0.08 mg/kg i.v.), 1.46; in series [1] (Day 9, 0.4 mg/kg i.v.), 2.31; in series [1] (Day 13, 0.8 mg/kg i.v.) it was 4.42. Besides, the “dose proportionality of exposure” value in series [1] (male beagle dogs, 25 to 800 μg/kg i.v.) is recorded as “exposure increased more than dose-proportionally”. Moreover, the tolerability result in series [1] (male beagle dogs, i.v. bolus, ascending 25, 80, 400, 800 μg/kg/day) is “well tolerated systemically and locally”. The clearance came out at 11.7 mL/min/kg in series [1] (Day 1, 0.025 mg/kg i.v.); 6.83 mL/min/kg in series [1] (Day 9, 0.4 mg/kg i.v.); 3.52 mL/min/kg in series [1] (Day 13, 0.8 mg/kg i.v.). Moreover, the half-life in series [1] (Day 1, 0.025 mg/kg i.v.) is 15 min; in series [1] (Day 9, 0.4 mg/kg i.v.), 29.4 min; in series [1] (Day 13, 0.8 mg/kg i.v.), 52.8 min. In addition, the Vd in series [1] (Day 1, 0.025 mg/kg i.v.) is 0.22 L/kg; in series [1] (Day 9, 0.4 mg/kg i.v.) it was 0.24 L/kg; in series [1] (Day 13, 0.8 mg/kg i.v.), 0.32 L/kg. Moreover, the AUC(0-t) was 34 ng·h/mL in series [1] (Day 1, 0.025 mg/kg i.v.); 117 ng·h/mL in series [1] (Day 5, 0.08 mg/kg i.v.); 926 ng·h/mL in series [1] (Day 9, 0.4 mg/kg i.v.); 3530 ng·h/mL in series [1] (Day 13, 0.8 mg/kg i.v.). Besides, the level at […] in series [1] (Day 1, 0.025 mg/kg i.v.) came to 46.8 ng/mL; in series [1] (Day 5, 0.08 mg/kg i.v.), 156 ng/mL; in series [1] (Day 9, 0.4 mg/kg i.v.) it was 880 ng/mL; in series [1] (Day 13, 0.8 mg/kg i.v.), 2000 ng/mL. For the same compound, the tissue uptake at 4 h in series [2] (SK-RC-52, In-111-labeled, 4% gelofusine before, Mean ± SEM, read-out: Blood uptake at 4 h p.i.) came to 0.03 ± 0.01 %ID/g; in series [2] (SK-RC-52, In-111-labeled, 4% gelofusine before, Mean ± SEM, read-out: Liver uptake at 4 h p.i.), 0.12 ± 0.01 %ID/g; in series [2] (SK-RC-52, In-111-labeled, no gelofusine, Mean ± SEM, read-out: Blood uptake at 4 h p.i.) it was 0.05 ± 0.01 %ID/g; in series [2] (SK-RC-52, In-111-labeled, no gelofusine, Mean ± SEM, read-out: Liver uptake at 4 h p.i.), 0.18 ± 0.04 %ID/g. In addition, the tissue uptake at 24 h is 0.73 ± 0.2 %ID/g in series [2] (SK-RC-52, In-111-labeled, 4% gelofusine before, Mean ± SEM, read-out: Kidney uptake at 24 h p.i.) and 0.95 ± 0.05 %ID/g in series [2] (SK-RC-52, In-111-labeled, no gelofusine, Mean ± SEM, read-out: Kidney uptake at 24 h p.i.). For the same compound, the tissue uptake in series [2] (SK-RC-52, In-111-labeled, 4% gelofusine before, Mean ± SEM, read-out: Peak Kidney uptake) stood at 1.84 ± 0.14 %ID/g; in series [2] (SK-RC-52 tumor mice, In-111-labeled, 4% gelofusine immediately before, Mean ± SEM, N=3, read-out: Peak Tumor Uptake), 13.4 ± 0.39 %ID/g.

With `CC(C)C[C@@H]1NC(=O)[C@H](Cc2cccc(NC(=O)CCCS(N)(=O)=O)c2)NC(=O)[C@H](CC(=O)O)NC(=O)[C@H]2CCCN2C(=O)[C@H](CCC(=O)O)NC(=O)[C@@H](NC(=O)[C@H](CCC(N)=O)NC(=O)CN2CCN(C(=O)CN3CCN(CC(=O)O)CCN(CC(=O)O)CCN(CC(=O)O)CC3)CC2)CSCc2cccc(c2)CSC[C@@H](C(N)=O)NC(=O)[C@H](CO)NC(=O)[C@H](Cc2c[nH]c3ccccc23)NC(=O)[C@H]([C@@H](C)O)NC1=O` [[^111In]In-DPI-4452, metal not drawn], the tissue uptake was determined as 1.84 ± 0.14 %ID/g in series [2] (SK-RC-52 model, with gelofusine, 1-2 hours post injection, read-out: peak kidney uptake); 13.4 ± 0.39 %ID/g in series [2] (SK-RC-52 tumor, 4% gelofusine immediately before, peak at 4 hours (DPI-4452) or 1 hour (DPI-4501), mean±SEM, read-out: peak tumor uptake); 7 %ID/g in series [2] (summary over tumor models, read-out: peak tumor uptake, typical (conclusion)). In addition, the tissue uptake at 24 h was determined as 0.73 ± 0.02 %ID/g in series [2] (SK-RC-52 model, with gelofusine, 24 hours post injection, read-out: kidney uptake) and 0.95 ± 0.05 %ID/g in series [2] (SK-RC-52 model, without gelofusine, 24 hours post injection, read-out: kidney uptake).
